Measurements published in ChEMBL document CHEMBL1201862, “PubChem BioAssay data set” (2004).
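Tested at 5 concentrations; 48 h exposure; 96-well plates; endpoints linearly interpolated, else capped at highest concentration. Abbreviation: GI50, concentration required for 50% inhibition of growth.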 The source made the active and inactive calls. Rule as the data show it: active = GI50 up to about 1.1 µM and inactive = higher.

Key:
Assay in all cases: NCI-60 cell line screen, 48 h
786-0 = system: 786-0
A498 = system: A498
A549 = system: A549
ACHN = system: ACHN
BT-549 = system: BT-549
CAKI-1 = system: CAKI-1
CCRF-CEM = system: CCRF-CEM
COLO 205 = system: COLO 205
DU-145 = system: DU-145
EKVX = system: EKVX
HCC 2998 = system: HCC 2998
HCT-116 = system: HCT-116
HCT-15 = system: HCT-15
HL-60 = system: HL-60
HOP-62 = system: HOP-62
HOP-92 = system: HOP-92
HT-29 = system: HT-29
Hs-578T = system: Hs-578T
IGROV-1 = system: IGROV-1
K562 = system: K562
KM12 = system: KM12
LOX IMVI = system: LOX IMVI
M14 = system: M14
MCF7 = system: MCF7
MDA-MB-231 = system: MDA-MB-231
MDA-MB-435 = system: MDA-MB-435
MDA-N = system: MDA-N
MOLT-4 = system: MOLT-4
Malme-3M = system: Malme-3M
NCI-H23 = system: NCI-H23
NCI-H460 = system: NCI-H460
NCI-H522 = system: NCI-H522
NCI/ADR-RES = system: NCI/ADR-RES
OVCAR-3 = system: OVCAR-3
OVCAR-4 = system: OVCAR-4
OVCAR-5 = system: OVCAR-5
OVCAR-8 = system: OVCAR-8
PC-3 = system: PC-3
RPMI-8226 = system: RPMI-8226
RXF 393 = system: RXF 393
SF-268 = system: SF-268
SF-295 = system: SF-295
SF-539 = system: SF-539
SK-MEL-28 = system: SK-MEL-28
SK-MEL-2 = system: SK-MEL-2
SK-MEL-5 = system: SK-MEL-5
SK-OV-3 = system: SK-OV-3
SN12C = system: SN12C
SNB-19 = system: SNB-19
SNB-75 = system: SNB-75
SW-620 = system: SW-620
T47D = system: T47D
TK-10 = system: TK-10
U-251 = system: U-251
UACC-257 = system: UACC-257
UACC-62 = system: UACC-62
UO-31 = system: UO-31
NCI-H226 = system: NCI-H226

Measured: GI50

Cc1cc(OC2OC(CO)C(O)C(O)C2O)ccc1O (stereo not given)
inactive: 786-0 > 100 µM | A498 > 100 µM | A549 > 100 µM | ACHN > 100 µM | BT-549 > 100 µM | CAKI-1 > 100 µM | CCRF-CEM > 100 µM | COLO 205 > 100 µM | DU-145 > 10 µM | EKVX > 100 µM | HCC 2998 > 100 µM | HCT-116 > 100 µM | HL-60 > 100 µM | HOP-62 > 100 µM | HOP-92 > 100 µM | HT-29 > 100 µM | Hs-578T > 100 µM | IGROV-1 > 100 µM | K562 > 100 µM | KM12 > 100 µM | LOX IMVI > 100 µM | M14 > 100 µM | MCF7 > 100 µM | MDA-MB-231 > 100 µM | MDA-MB-435 > 100 µM | MDA-N > 100 µM | MOLT-4 > 100 µM | Malme-3M > 100 µM | NCI-H23 > 100 µM | NCI-H460 > 100 µM | NCI-H522 > 100 µM | NCI/ADR-RES > 100 µM | OVCAR-3 > 100 µM | OVCAR-4 > 100 µM | OVCAR-5 > 100 µM | OVCAR-8 > 100 µM | PC-3 > 100 µM | RPMI-8226 > 100 µM | RXF 393 > 100 µM | SF-268 > 100 µM | SF-295 > 100 µM | SF-539 > 100 µM | SK-MEL-28 > 100 µM | SK-MEL-2 > 100 µM | SK-MEL-5 > 100 µM | SK-OV-3 > 100 µM | SN12C > 100 µM | SNB-19 > 100 µM | SNB-75 > 100 µM | SW-620 > 100 µM | T47D > 100 µM | TK-10 > 100 µM | U-251 > 100 µM | UACC-257 > 100 µM | UACC-62 > 100 µM | UO-31 > 100 µM
> 100 µM: HCT-15

COc1ccc(/C(Nc2ccccc2)=C(\CCl)c2ccccc2)cc1OC
40.7 µM: HCT-15
inactive: 786-0 55.8 µM | A498 > 100 µM | A549 44.6 µM | ACHN 31.9 µM | BT-549 33.2 µM | CAKI-1 > 100 µM | CCRF-CEM 17.3 µM | COLO 205 71.6 µM | DU-145 86.3 µM | EKVX 24.3 µM | HCC 2998 48.1 µM | HCT-116 17.7 µM | HL-60 18.9 µM | HOP-62 > 100 µM | HOP-92 37.6 µM | HT-29 34.9 µM | Hs-578T > 100 µM | IGROV-1 > 100 µM | K562 15.7 µM | KM12 57.1 µM | LOX IMVI 10.1 µM | M14 41.4 µM | MCF7 26.4 µM | MDA-MB-231 50.4 µM | MDA-MB-435 32.8 µM | MDA-N 35.7 µM | MOLT-4 29.6 µM | Malme-3M 37.2 µM | NCI-H226 30.9 µM | NCI-H23 45.9 µM | NCI-H460 41.8 µM | NCI-H522 16.7 µM | NCI/ADR-RES 32.1 µM | OVCAR-3 35.7 µM | OVCAR-4 35.7 µM | OVCAR-5 > 100 µM | OVCAR-8 35.2 µM | PC-3 39.4 µM | RPMI-8226 21.2 µM | RXF 393 83.8 µM | SF-268 97.1 µM | SF-295 49.2 µM | SF-539 > 100 µM | SK-MEL-28 82 µM | SK-MEL-2 24.1 µM | SK-MEL-5 22.2 µM | SK-OV-3 > 100 µM | SN12C 36.7 µM | SNB-19 > 100 µM | SNB-75 63.2 µM | SW-620 46.2 µM | T47D 35.5 µM | TK-10 41.5 µM | U-251 6.53 µM | UACC-257 29.2 µM | UACC-62 99.1 µM | UO-31 37.2 µM
